Measured values as given in patent publication US12059403B2, “Use of SWELL1 inhibitors and modulators to treat type 2 diabetes and obesity” (UNIVERSITY OF IOWA RESEARCH FOUNDATION, priority 2016, dated 2024).
Where a chain is given by its changes, count along the chain named.

Assays:
[1] = tested on: mice raised on a high-fat diet; assay: Glucose tolerance in mice raised on a high-fat diet; assay type: in vivo
[2] = biological target: T1, β-cell VRAC (Homo sapiens, UniProt Q8IWT6); assay: Perforated-patch clamp of glucose-activated VRAC in primary human β-cells; assay type: cell-based; conditions: 35-37° C.
T1 construct: from tissue; host or cells: primary β-cells from human pancreatic islets
T1 sequence (Q8IWT6 1-810): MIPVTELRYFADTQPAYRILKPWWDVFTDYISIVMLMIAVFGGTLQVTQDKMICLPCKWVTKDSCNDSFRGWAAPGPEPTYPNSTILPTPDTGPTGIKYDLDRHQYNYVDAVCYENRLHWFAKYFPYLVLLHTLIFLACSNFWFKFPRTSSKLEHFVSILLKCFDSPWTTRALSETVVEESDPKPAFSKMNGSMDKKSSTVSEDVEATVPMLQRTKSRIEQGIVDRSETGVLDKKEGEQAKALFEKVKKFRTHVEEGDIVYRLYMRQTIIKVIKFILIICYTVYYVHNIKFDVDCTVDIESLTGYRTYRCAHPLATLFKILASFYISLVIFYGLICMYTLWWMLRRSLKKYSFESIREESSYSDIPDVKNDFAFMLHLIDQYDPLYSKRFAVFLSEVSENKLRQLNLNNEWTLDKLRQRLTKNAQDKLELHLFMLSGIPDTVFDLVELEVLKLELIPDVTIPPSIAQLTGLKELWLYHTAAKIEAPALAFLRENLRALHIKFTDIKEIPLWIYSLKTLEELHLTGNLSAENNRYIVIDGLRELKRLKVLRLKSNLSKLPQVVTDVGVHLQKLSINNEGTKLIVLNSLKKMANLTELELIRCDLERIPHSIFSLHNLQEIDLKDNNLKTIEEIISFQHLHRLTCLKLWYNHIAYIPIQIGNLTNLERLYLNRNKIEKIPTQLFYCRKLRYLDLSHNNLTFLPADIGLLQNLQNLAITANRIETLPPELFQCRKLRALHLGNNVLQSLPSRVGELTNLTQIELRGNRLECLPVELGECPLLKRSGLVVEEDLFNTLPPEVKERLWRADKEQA
Procedure: (§1) Having established that SWELL1 is required for this previously enigmatic depolarizing swell-activated Cl^− current in MIN6 cells, and in both mouse and human primary β-cells, whether physiologic glucose-mediated β-cell swelling is sufficient to activate SWELL1-mediated VRAC was investigated. First, β-cell size was measured by light microscopy in WT and SWELL1-deficient primary murine and human β-cells in response to glucose-stimulated swelling (at 35-37° C.). WT murine β-cells swell 6.8±1.6% in cross-sectional area upon perfusion of 16.7 mM glucose (from 1 mM basal glucose) and reach a maximum size at 12 minutes post glucose-stimulation, followed by a reduction in β-cell size, consistent with regulatory volume decrease (RVD). […] WT human β-cells show a similar trend, swelling 8.6±3.5%, followed by RVD. […] Next, the perforated-patch clamp technique was applied to primary β-cells at 35-37° C. in order to measure currents under the same physiological conditions that induce glucose-mediated β-cell swelling. β-cell VRAC activates in response to physiological increases in glucose in MIN6 cells and in both mouse and human β-cells, and is blocked by the selective VRAC inhibitor, DCPIB. […]

[3] = biological target: T2, volume-regulated anion current (VRAC) (Mus musculus, UniProt Q80WG5); assay: Patch-clamp of swell-activated current in 3T3-F442A adipocytes upon hypotonic swelling; assay type: cell-based; conditions: murine 3T3-F442A adipocytes
T2 construct: present in the murine 3T3-F442A and human adipocyte cell lines (NPAD) upon hypotonic swelling; endogenous in cells; host or cells: 3T3-F442A adipocytes
T2 sequence (Q80WG5 1-810): T1 sequence (Q8IWT6 1-810) with P75S, G76S, I86V, I276A, A591V, I715V, T722A, N792S

[4] = biological target: T3, β-cell VRAC (Mus musculus, UniProt Q80WG5); assay: Perforated-patch clamp of glucose-activated VRAC in MIN6 cells; assay type: cell-based; conditions: 35-37° C.
T3 construct: endogenous in cells; host or cells: MIN6 mouse insulinoma cells
T3 sequence (Q80WG5 1-810): T1 sequence (Q8IWT6 1-810) with P75S, G76S, I86V, I276A, A591V, I715V, T722A, N792S
Procedure: as §1

[5] = tested on: SWELL1; assay: SWELL1 protein expression in cultured adipocytes; assay type: cell-based
[6] = biological target: T2, volume-regulated anion current (VRAC); assay: Patch-clamp of swell-activated current in mature murine iWAT adipocytes swelled by positive pressure; assay type: cell-based; conditions: positive pressure swelling, whole-cell
Procedure: To identify a putative swell-activated ionic current in adipocytes, patch-clamp recordings were performed on mature murine adipocytes freshly isolated from inguinal white adipose tissue (iWAT). Ionic currents were measured in voltage-clamp mode while simultaneously swelling the adipocyte by applying positive pressure (˜3-5 mmHg, whole-cell configuration) via the patch-pipette. After a few minutes, activation of a large swell-activated current was observed. This current is outward rectifying, characterized by larger outward current at positive voltages compared to inward currents at negative voltages during sequential voltage ramps or voltage steps, with the current amplitude proportional to the extent of adipocyte swelling. This current reverses direction at −11.7±2.5 mV, which is near the reversal potential of chloride under these conditions (−11.5 mV, junction potential corrected). […] Finally, this swell-activated adipocyte current is blocked by 4-[(2-Butyl-6,7-dichloro-2-cyclopentyl-2,3-dihydro-1-oxo-1H-inden-5-yl)oxy]butanoic acid (DCPIB), a selective blocker of the volume-regulated anion current (VRAC) or volume-sensitive outwardly rectifying chloride current (VSOR).

[7] = biological target: T4, volume-regulated anion current (VRAC) (Homo sapiens, UniProt Q8IWT6); assay: Patch-clamp of swell-activated current in human adipocyte cell line (NPAD) upon hypotonic swelling; assay type: cell-based
T4 construct: present in the murine 3T3-F442A and human adipocyte cell lines (NPAD) upon hypotonic swelling; endogenous in cells; host or cells: human adipocyte cell line (NPAD)
T4 sequence (Q8IWT6 1-810): T1 sequence (Q8IWT6 1-810)

[8] = biological target: T3, β-cell VRAC; assay: Perforated-patch clamp of glucose-activated VRAC in primary mouse β-cells; assay type: cell-based; conditions: 35-37° C.
Procedure: as §1

[9] = tested on: WT MIN6 cells; assay: Glucose-stimulated intracellular Ca2+ in WT MIN6 cells; assay type: cell-based, mouse; conditions: 10 μM
Procedure: To determine whether SWELL1-mediated depolarizing Cl^− current is required to depolarize the β-cell membrane potential to the activation threshold of voltage-gated Ca^2+ channels (VGCC) essential for insulin granule fusion, glucose-stimulated intracellular Ca^2+ was measured in WT and SWELL1-deficient MIN6 β-cells, primary mouse and human β-cells.

[10] = tested on: WT primary murine β-cells; assay: Glucose-stimulated Ca2+ signaling (GCaMP6s imaging) in WT primary murine β-cells; assay type: cell-based; conditions: 10 μM
Excerpt: SWELL1-dependent Ca^2+ signaling was then examined in primary mouse and human β-cells. Adenoviruses expressing the genetically encoded Ca^2+-sensor GCaMP6s under control of the rat insulin promoter 1 (RIP1), either alone (Ad-RIP1-GCaMP6s), or in combination with Cre-recombinase (Ad-RIP1-Cre-P2A-GCaMP6s), were generated. This approach provides a robust β-cell restricted fluorescent Ca^2+ sensor while simultaneously allowing for β-cell targeted Cre-mediated SWELL1 deletion in cultured SWELL1^fl/fl islets isolated from SWELL1^fl/fl mice. […] A similar approach was used in human islets, whereby islets were co-transduced with Ad-RIP1-GCaMP6s and either Ad-U6-shSWELL1-mCherry or Ad-U6-shSCR-mCherry. Upon islet dissociation, only double-labelled GCaMP6s+/mCherry+ primary human β-cells were imaged. As with mouse primary β-cells, robust glucose-stimulated Ca^2+ transients in Ad-shSCR treated human primary β-cells were observe, and this is markedly abograted upon Ad-shSWELL1-mediated SWELL1 knock-down. […] In pancreatic β-cells, physiological intracellular Cl^− concentration is maintained at 34-36 mM by NKCC1 transporters to generate a depolarizing Cl^− current upon activation of a Cl^− conductance, since ECl−=˜−35 mV. […]

**Q.** Which “glucose tolerance associated with obesity” value [1] does the source give for `CCCCC1(C2CCCC2)Cc2cc(OCCCC(=O)O)c(Cl)c(Cl)c2C1=O` (stereo not shown) [DCPIB, 4-[(2-Butyl-6,7-dichloro-2-cyclopentyl-2,3-dihydro-1-oxo-1H-inden-5-yl)oxy]butanoic acid] here?
**A.** normalized

**Q.** And the “β-cell VRAC activated by physiological increases in glucose” value [2]?
**A.** blocked

**Q.** And the swell-activated current [3]?
**A.** fully inhibited

**Q.** What about the “β-cell VRAC activated by physiological increases in glucose” value [4] of the same molecule?
**A.** blocked

**Q.** And the SWELL1 protein expression [5]?
**A.** induced a compensatory increase

**Q.** And the swell-activated adipocyte current [6]?
**A.** blocked

**Q.** What about the swell-activated current [7] of the same molecule?
**A.** fully inhibited

**Q.** What about the “β-cell VRAC activated by physiological increases in glucose” value [8] of the same molecule?
**A.** blocked

**Q.** How did the “glucose-stimulated Ca2+ signaling” value [9] turn out when `CCCCNc1cc(C(=O)O)cc(S(N)(=O)=O)c1Oc1ccccc1` [bumetanide] was run?
**A.** fully inhibits

**Q.** What about the “glucose-stimulated Ca2+ signaling” value [10] of the same molecule?
**A.** fully inhibits
